Test results as given in patent US20090281061A1, “Impaired Alleles of Genes Involved in Metabolic Pathways and Methods for Detecting and Using the Same” (The Regents of the University of California, priority 2008, published 2009).

Assays:
[1] = test system: human MTHFR; assay: Cell-free MTHFR enzyme activity assay in crude yeast extract, with heat treatment at 55° C.; format: biochemical; settings: crude yeast lysate
[2] = target: T1, human MTHFR (Homo sapiens, UniProt P42898); assay: as above; format: biochemical; settings: 55° C., 20 m
T1 construct: made in house; host or cells: Saccharomyces cerevisiae fol3Δ met13Δ, GAL1 promoter, crude extract

Substance	cell-free enzyme activity compared with the major allele [1]	activity retained after heat treatment, of original activity [2]
E429A: common human MTHFR variant, regulatory domain	benign	–
R594Q: common human MTHFR variant, regulatory domain	benign	–
major allele: the most common human MTHFR allele in the population, expressed in yeast	–	about 30%
